Laboratory results published in paper PMC6152618, “Antimicrobial Activity of Truncated and Polyvalent Peptides Derived from the FKCRRWQWRMKKGLA Sequence against Escherichia coli ATCC 25922 and Staphylococcus aureus ATCC 25923” (Molecules : A Journal of Synthetic Chemistry and Natural …, 2017).
Converted amounts (≈) assume the structure as drawn. Where two headings read alike, the source gives them in different places. Ends that are not written are not given here.

Key:
[1] = tested on: Staphylococcus aureus ATCC 25923; assay type: cell-based
Protocol: (§1) The MIC was determined using a microdilution assay. In brief, bacterial strains were incubated for 18 to 24 h at 37 °C in an Müller-Hinton (MH) broth until an optical density of 0.15 to 0.30 (620 nm) was obtained. Next, 90 μL of Mueller-Hinton broth (MHB) was mixed with […], and serial dilutions (200, 100, 50, 25, 12.5 and 6.2) were prepared in 96-well microplates (final volume 100 μL/well). Then, 10 μL of inoculum (2 × 10^6 CFU/mL) was added to each well. The final volume in each well was 100 μL. Then they were incubated for 24 h at 37 °C; the absorbance at 620 nm was measured using an Asys Expert Plus ELISA reader. For determining the MBC, a small sample was taken from each well using an inoculation loop, and then was spread on MH agar plates and incubated overnight at 37 °C. MBC was considered on the plate which presented no bacterial growth. Each of these tests was performed twice (n = 2).

[2] = tested on: Escherichia coli ATCC 25922; assay type: cell-based
Protocol: as §1

E coli = settings: cited from earlier work
Description: (§2) Please note that in this sequence some C-terminal positions have been changed compared to LfcinB 17–31 [38, 48]. The peptide LfcinB 17–31 has been studied for its relative structure and antibacterial activit ...

S. aureus [3] = settings: cited from earlier work
Description: as §2

E. coli ML35 = settings: cited from earlier work
Description: as §2

S. aureus 42D = settings: cited from earlier work
Description: as §2

E. coli L361 = tested on: E. coli L361; set-up: method as in PMID 8980754; settings: cited from earlier work
E. coli O9 = tested on: E. coli O9; set-up: method as in PMID 8980754; settings: cited from earlier work
S. aureus [4] = tested on: S. aureus; set-up: method as in PMID 8980754; settings: cited from earlier work
[5] = microdilution, Mueller-Hinton broth, 24 h at 37 °C, absorbance 620 nm, n = 2
[6] = sample of each well spread on MH agar, overnight 37 °C, no bacterial growth, n = 2

Molecule | MBC S. aureus ATCC 25923 ([1]; ATCC 25923) | MIC S. aureus ATCC 25923 ([1]; ATCC 25923, 24 h) | MBC E. coli ATCC 25922 ([2]; ATCC 25922) | MIC E. coli ATCC 25922 ([2]; ATCC 25922, 24 h) | other results
CSCC[C@H](NC(=O)[C@H](CCCNC(=N)N)NC(=O)[C@H](Cc1c[nH]c2ccccc12)NC(=O)[C@H](CCC(N)=O)NC(=O)[C@H](Cc1c[nH]c2ccccc12)NC(=O)[C@H](CCCNC(=N)N)NC(=O)[C@H](CCCNC(=N)N)NC(=O)[C@H](C)NC(=O)[C@H](CCCCN)NC(=O)[C@@H](N)Cc1ccccc1)C(=O)N[C@@H](CCCCN)C(=O)N[C@@H](CCCCN)C(=O)N[C@@H](CC(C)C)C(=O)NCC(=O)N[C@@H](C)C(=O)O [[Ala^19]-LfcinB 17–31] | >200 µM | >200 µM |  |  | 
KCRRWQWRMKKLGA [LfcinB 18–31, …, truncated peptide of LfcinB 17–31] |  |  |  |  | MIC E. coli ATCC 25922 [2, 5]: >200 µM; MBC E. coli ATCC 25922 [2, 6]: >200 µM; MIC S. aureus ATCC 25923 [1, 5]: >200 µM; MBC S. aureus ATCC 25923 [1, 6]: >200 µM
SKCYQWQRRMRKLGA |  |  |  |  | MIC E coli (E coli): 252 µM; MIC S. aureus (S. aureus [3]): > 500 µM
FKCRRWQWRMKKLG-NH2 [LfcinB 17–30] | >200 µM | >200 µM | 200 µM | 200 µM | 
RWQWRWQWR [(LfcinB 21–25)Pal] |  |  |  | 12.5 µM | 
RRWQWR-NH2 [LfcinB 20–25, reference compound] | >200 µM | >200 µM | >200 µM | >200 µM | 
FKCRRWQWRMK-NH2 [LfcinB 17–27] | >200 µM | >200 µM | 200 µM | 100 µM | 
FKCRRWQWRMKKL-NH2 [LfcinB 17–29] |  |  | >200 µM | 200 µM | 
LfcinB 20–30: literature analogue of LfcinB 20-31 (CVRRAFALECI; lactoferricin B; UniProt P24627 55-65, looked up, fragment) |  |  |  |  | LD99.9 E. coli ML35 (E. coli ML35): 15 µM; LD99.9 S. aureus 42D (S. aureus 42D): 7.5 µM
FKCRRWQWRMKK-NH2 [LfcinB 17–28] | >200 µM | >200 µM | 200 µM | 200 µM | 
FKCRRWQWR-NH2 [LfcinB 17–25] | >200 µM | >200 µM | 100 µM | 100 µM | 
(FKARRWQWRMKKLGA)2K-Ahx-C [([Ala^19]-LfcinB 17–31)2] |  |  |  |  | MIC S. aureus ATCC 25923 [1, 5]: 12.5 µM; MBC S. aureus ATCC 25923 [1, 6]: 12.5 µM
FKCRRWQWRM-NH2 [LfcinB 17–26] |  |  |  |  | MIC E. coli ATCC 25922 [2, 5]: 100 µM; MBC E. coli ATCC 25922 [2, 6]: 200 µM; MIC S. aureus ATCC 25923 [1, 5]: 200 µM; MBC S. aureus ATCC 25923 [1, 6]: 200 µM
FKCRRWQWR-Homoserine lactone [subfragment 1, literature peptide …-Homoserine lactone] |  |  |  |  | antibacterial activity against E. coli L361 (E. coli L361): 10 µM; antibacterial activity against E. coli O9 (E. coli O9): 15 µM; antibacterial activity against S. aureus (S. aureus [4]): > 50 µM
RRWQWRMKKLGA [LfcinB 20–31] | >200 µM | >200 µM | >200 µM | 200 µM | 
CRRWQWRMKKLGA-NH2 [LfcinB 19–31] | >200 µM | >200 µM | 100 µM | 100 µM | 
CSCC[C@H](NC(=O)[C@H](CCCNC(=N)N)NC(=O)[C@H](Cc1c[nH]c2ccccc12)NC(=O)[C@H](CCC(N)=O)NC(=O)[C@H](Cc1c[nH]c2ccccc12)NC(=O)[C@H](CCCNC(=N)N)NC(=O)[C@H](CCCNC(=N)N)NC(=O)[C@H](CS)NC(=O)[C@H](CCCCN)NC(=O)[C@@H](N)Cc1ccccc1)C(=O)N[C@@H](CCCCN)C(=O)N[C@@H](CCCCN)C(=O)N[C@@H](CC(C)C)C(=O)NCC(=O)N[C@@H](C)C(N)=O [LfcinB 17–31, reference compound] |  |  |  |  | MIC E. coli ATCC 25922 [2, 5]: 200 µM (≈ 399 µg/mL); MBC E. coli ATCC 25922 [2, 6]: >200 µM; MIC S. aureus ATCC 25923 [1, 5]: >200 µM; MBC S. aureus ATCC 25923 [1, 6]: >200 µM
